Ends that are not written are not given here.

For experiment [1], the target named is T1, extracellular domain of EGFR protein (Homo sapiens, UniProt P00533). As to the kind of experiment: SPR analysis on immobilized EGFR extracellular domain. Conditions: analyte up to 250 μM, HBS-EP+ with 4% DMSO. The class given is binding.
For experiment [2], the target named is T1, extracellular domain of EGFR protein. The conditions noted are these: cited from earlier work.

For `CC1=CC(C)=[N+]2C1=C(CCCC(=O)O)c1c(C)cc(C)n1[B-]2(F)F` [BODIPY 1], the “Kind of binding to EGFR ECD in SPR sensorgram (in words)” value in experiment [1] is “non-specific binding”.
Take “2: EGFR-L1 sequence modified with a glycine spacer, amide terminus (GLARLLT-NH2) [compound 2]”: in experiment [2] (earlier studies), the “Association and dissociation with EGFR ECD by SPR (in words)” value is “fast association and dissociation”.
Regarding cyclo(K(N3)larllt) [reference compound], the “Binding to EGFR (in words)” value in experiment [2] (previously shown) was “high affinity”.

These data come from article PMC8794222 (Photochemistry and photobiology, 2020).
